Laboratory results published in PMC6273861, “Synthesis and Determination of Physicochemical Properties of New 3-(4-Arylpiperazin-1-yl)-2-hydroxypropyl 4-Alkoxyethoxybenzoates” (Molecules, 2016).

Key:
[1] = Lipophilicity index (log kw7.4, log kw) by RP-HPLC; type: physicochemical; settings: for log kw7.4: RP-HPLC, ZORBAX Extend-C18, pH 7.4, extrapolated to 100% water, mean and standard deviation; for log kw: neutral form, calculated from log kw7.4 and pKa by Equation (2)
Method: The lipophilicity indexes log kw7.4 were measured by means of RP-HPLC method. The log kw values were then calculated according to Equation (2) given in Section 3.3. The correlation coefficients were greater than 0.999 with covariance equal or less than 0.03 units (n = 2). The log kw^7.4 values of synthetized compounds were measured by a Dionex Ultimate 3000 (Thermo Fisher Scientific) HPLC system controlled through the Chromeleon® Chromatography Data System (version 7.2). The separation was performed on ZORBAX Extend-C18 (3.5 µm, 3 × 150 mm) column (Agilent Technologies). Mobile phase consists of 0.02 M […] with addition of 0.15% of n-decylamine (pH = 7.4; constituent A) and methanol to which 0.25% of n-octanol was added (constituent B). The total flow rate was 0.4 mL/min, the injection volume was 1 μL, and the column temperature was maintained at 25 °C. The detection wavelength of 254 nm was chosen. One milligram of the sample was dissolved in 1 mL of methanol and diluted to the concentration 0.1 mg/mL with 50% methanol. Retention factors of the compound were measured under isocratic conditions in the range 20:80–50:50 (A:B; v/v), 5 values for each factor in duplicate. Linear regression analysis was performed and log kw7.4 values were calculated according to Equation (1). (1) logk=−Sϕ+logkw where log k represents a logarithm of individual isocratic factor, φ is the organic phase concentration, and S is a constant derived by linear regression analysis. The retention factor corresponding to the neutral form (log kw) was estimated from the apparent log kw7.4 by using Equation (2). (2) logkw=logkwapp+log(1+10^pKa−pH)

[2] = Determination of dissociation constants (pKa) by capillary zone electrophoresis; type: physicochemical; settings: 25 °C, BGE pH 3.9 to 9.2, mean and standard deviation of four measurements, read-out: pKa (exp.)
Method: The dissociation constants (pKa) of studied compounds were determined by means of CE. The measured values and values predicted by chemical software (ACD Percepta ver. 2012, Advanced Chemistry Development, Toronto, ON, Canada; MarvinSketch 6.0.6., ChemAxon Kft., Budapest, Hungary) are shown in Table 1. The correlation coefficients of the experimentally determined values were greater than 0.999 and standard deviation equal or less than 0.02 units (n = 4). The experimental values are in the range 6.35–6.92 and the highest values were recorded for the 1-(2-methoxyphenylpiperazine) derivatives 7b, 8b, 9b. The clinically used β-blockers are usually stronger bases, the values of studied compounds are lower due to the presence of piperazine moiety instead of secondary amine group.
The CE experiments were carried out with an Agilent 3D CE (Agilent Technologies) capillary electrophoresis system equipped with an autosampler, automatic injector, photodiode array detector, and an air cooling unit for the capillary. The instrument control and analysis were performed with 3D-CE ChemStation software (Agilent Technologies). Uncoated fused-silica capillary (Agilent Technologies) of 50 µm internal diameter, total length of 33.0 cm and effective length (to the detector) of 24.5 cm was used. The capillary cassette temperature was maintained at 25 °C with air cooling. Three milligrams of the sample were dissolved in 1 mL of 50% methanol and 10 times diluted with appropriate background electrolyte before analysis. Samples were injected hydrodynamically at 40 mbar pressure for 4.0 s. Running voltage was 15 kV of positive polarity. UV detection was performed at 254 nm. As a marker of electroosmotic flow, mesityl oxide was used. The effective mobilities were recorded for BGE pH values in the range of 3.9 to 9.2 (ionic strength equal to 10 mM), 4 runs at 10 different buffer pH values. The effective mobilities (μeff) were calculated according to Equation (3). (3) μeff=LtotLeff/U(1/tmig−1/tEOF) where tmig is the migration time of the analyte and tEOF is the migration time of a neutral marker compound that is of the same velocity as the electroosmotic flow (EOF). Leff is distance from the injection end of capillary to the detector and Ltot is the total length of the capillary over which the voltage U was applied. SigmaPlot for Windows version 11.0 (Systat Software GmbH, Erkrath, Germany) was employed for the nonlinear regression analysis of µeff/pH relationship having characteristic sigmoidal shape with inflection point indicating pKa value.
The pH measurements were taken with a combination glass electrode (HI 1332B, HANNA Instruments, Woonsocket, RI, USA), using a Thermo Orion 370 PerpHect® pH meter (ThermoFisher Scientific).

Row | SMILES | melting point [°C] | log kw7.4 [1] | log kw [1] | pKa [2]
1 | COc1ccccc1N1CCN(CC(O)COC(=O)c2ccc(OCCOC(C)C)cc2)CC1.Cl.Cl (stereo not drawn) [8b, 1-{2-Hydroxy-3-[(4-isopropoxyethoxybenzoyl)oxy]propyl}-4-(2-methoxyphenyl)piperazinediium dichloride] | 154 to 156 | 4.03 ± 0.02 | 4.15 ± 0.07 | 6.92 ± 0.01
2 | CCCOCCOc1ccc(C(=O)OCC(O)CN2CCN(c3ccccc3OC)CC2)cc1.Cl.Cl (stereo not drawn) [9b, 1-{2-Hydroxy-3-[(4-propoxyethoxybenzoyl)oxy]propyl}-4-(2-methoxyphenyl)piperazinediium dichloride] | 143 to 146 | 4.11 ± 0.02 | 4.20 ± 0.09 | 6.79 ± 0.02
3 | CC(C)OCCOc1ccc(C(=O)OCC(O)CN2CCN(c3ccccc3)CC2)cc1.Cl.Cl (stereo not drawn) [8a, 1-{2-Hydroxy-3-[(4-isopropoxyethoxybenzoyl)oxy]propyl}-4-phenylpiperazinediium dichloride] | 200 to 202 | 4.21 ± 0.01 | 4.25 ± 0.05 | 6.49 ± 0.01
4 | CCCOCCOc1ccc(C(=O)OCC(O)CN2CCN(c3ccc(OC)cc3)CC2)cc1.Cl.Cl (stereo not drawn) [9c, 1-{2-Hydroxy-3-[(4-propoxyethoxybenzoyl)oxy]propyl}-4-(4-methoxyphenyl)piperazinediium dichloride] | 173 to 175 | 3.99 ± 0.02 | 4.03 ± 0.09 | 6.39 ± 0.01
5 | CCCOCCOc1ccc(C(=O)OCC(O)CN2CCN(c3ccccc3)CC2)cc1.Cl.Cl (stereo not drawn) [9a, 1-{2-Hydroxy-3-[(4-propoxyethoxybenzoyl)oxy]propyl}-4-phenylpiperazinediium dichloride] | 197 to 199 | 4.29 ± 0.03 | 4.34 ± 0.10 | 6.5 ± 0.02
6 | C=CCOCCOc1ccc(C(=O)OCC(O)CN2CCN(c3ccc(OC)cc3)CC2)cc1.Cl.Cl (stereo not drawn) [7c, 1-{3-[(4-Allyloxyethoxybenzoyl)oxy]-2-hydroxypropyl}-4-(4-methoxyphenyl)piperazinediium dichloride] | 170 to 173 | 3.67 ± 0.02 | 3.71 ± 0.08 | 6.49 ± 0.02
7 | C=CCOCCOc1ccc(C(=O)OCC(O)CN2CCN(c3ccccc3)CC2)cc1.Cl.Cl (stereo not drawn) [7a, 1-{3-[(4-Allyloxyethoxybenzoyl)oxy]-2-hydroxypropyl}-4-phenylpiperazinediium dichloride] | 185 to 187 | 3.97 ± 0.03 | 4.01 ± 0.09 | 6.47 ± 0.02
8 | COc1ccc(N2CCN(CC(O)COC(=O)c3ccc(OCCOC(C)C)cc3)CC2)cc1.Cl.Cl (stereo not drawn) [8c, 1-{2-Hydroxy-3-[(4-isopropoxyethoxybenzoyl)oxy]propyl}-4-(4-methoxyphenyl)piperazinediium dichloride] | 193 to 195 | 3.90 ± 0.02 | 3.93 ± 0.06 | 6.35 ± 0.02
9 | C=CCOCCOc1ccc(C(=O)OCC(O)CN2CCN(c3ccccc3OC)CC2)cc1.Cl.Cl (stereo not drawn) [7b, 1-{3-[(4-Allyloxyethoxybenzoyl)oxy]-2-hydroxypropyl}-4-(2-methoxyphenyl)piperazinediium dichloride] | 178 to 180 | 3.78 ± 0.02 | 3.89 ± 0.08 | 6.88 ± 0.02
